Measurements from patent publication US10457703B2, “Bile acid derivatives as FXR/TGR5 agonists and methods of use thereof” (ENANTA PHARMACEUTICALS, INC., priority 2015, dated 2019).

Biological target: human FXR (NR1H4) (Homo sapiens (Human), UniProt Q96RI1)
Experiment: Human FXR (NR1H4) Assay (Gal4 promoter driven luciferase reporter, Indigo Bioscience kit);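 as to Efficacy (%): 100% equals the efficacy of CDCA; efficacy normalized to CDCA set as 100%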
Type: cell-based
Details: for EC50: Human FXR (NR1H4) Assay, potency ranges; for Emax: read-out: Efficacy (%)
Excerpt: ASSAYS Human FXR (NR1H4) Assay
Determination of a ligand mediated Gal4 promoter driven transactivation to quantify ligand binding mediated activation of FXR. FXR Reporter Assay kit purchased from Indigo Bioscience (Catalogue number: IB00601) to determine the potency and efficacy of compound developed by Enanta that can induce FXR activation. The principle application of this reporter assay system is to quantify functional activity of human FXR. The assay utilizes non-human mammalian cells, CHO (Chinese hamster ovary) cells engineered to express human NR1H4 protein (referred to as FXR). Reporter cells also incorporate the cDNA encoding beetle luciferase which catalyzes the substrates and yields photon emission. Luminescence intensity of the reaction is quantified using a plate-reading luminometer, Envision. Reporter Cells include the luciferase reporter gene functionally linked to an FXR responsive promoter. Thus, quantifying changes in luciferase expression in the treated reporter cells provides a sensitive surrogate measure of the changes in FXR activity. […] The assay is according to the manufacturer's instructions. In brief, the assay was performed in white, 96 well plates using final volume of 100 uL containing cells with different doses of compounds. Retrieve Reporter Cells from −80° C. storage. Perform a rapid thaw of the frozen cells by transferring a 10 ml volume of 37° C. cell recovery medium into the tube of frozen cells. Recap the tube of Reporter Cells and immediately place it in a 37° C. water bath for 5-10 minutes. Retrieve the tube of Reporter Cell Suspension from the water bath. Sanitize the outside surface of the tube with a 70% alcohol swab, and then transfer it into the cell culture hood. Dispense 90 μl of cell suspension into each well of the 96-well Assay Plate. Transfer the plate into 37° C. incubator, allowing the cells adherent to the bottom of the well. Dilute compounds in Dilution Plate (DP), and administrate to cells at Assay Plate (AP). DMSO content of the samples was kept at 0.2%. Cells were incubated for additional 22 hours before luciferase activities were measured. Thirty minutes before intending to quantify FXR activity, remove Detection Substrate and Detection Buffer from the refrigerator and place them in a low-light area so that they may equilibrate to room temperature. Remove the plate's lid and discard all media contents by ejecting it into an appropriate waste container. Gently tap the inverted plate onto a clean absorbent paper towel to remove residual droplets. Cells will remain tightly adhered to well bottoms. Add 100 μl of luciferase detection reagent to each well of the assay plate. Allow the assay plate to rest at room temperature for at least 5 minutes following the addition of LDR. Set the instrument (Envision) to perform a single 5 second “plate shake” prior to reading the first assay well. Read time may be 0.5 second (500 mSec) per well.

Chain of human FXR (NR1H4) (Q96RI1 whole entry, the tested form may be a part): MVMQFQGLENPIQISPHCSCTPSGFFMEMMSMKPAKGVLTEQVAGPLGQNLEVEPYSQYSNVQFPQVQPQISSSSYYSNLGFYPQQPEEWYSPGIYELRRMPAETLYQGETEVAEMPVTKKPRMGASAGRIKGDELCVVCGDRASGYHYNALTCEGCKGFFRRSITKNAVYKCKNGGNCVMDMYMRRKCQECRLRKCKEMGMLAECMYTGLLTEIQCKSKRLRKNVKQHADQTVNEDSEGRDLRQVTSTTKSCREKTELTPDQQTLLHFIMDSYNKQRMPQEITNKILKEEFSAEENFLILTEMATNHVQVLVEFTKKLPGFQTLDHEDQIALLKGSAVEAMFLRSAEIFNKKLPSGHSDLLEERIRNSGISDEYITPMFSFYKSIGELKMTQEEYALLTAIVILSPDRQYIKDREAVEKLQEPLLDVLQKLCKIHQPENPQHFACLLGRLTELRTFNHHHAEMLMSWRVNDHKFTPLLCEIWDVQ

Row | Compound | EC50 [nM] | Emax [%]
1 | CC[C@H]1[C@@H](O)[C@@H]2[C@H](CC[C@]3(C)[C@@H]([C@H](C)COC(=O)NS(=O)(=O)c4ccc(-c5ccc(OC(F)(F)F)cc5)cc4)CC[C@@H]23)[C@@]2(C)CC[C@@H](O)C[C@@H]12 [Example 33] | < 100 | 266
2 | CC[C@H]1[C@@H](O)[C@@H]2[C@H](CC[C@]3(C)[C@@H]([C@H](C)CCOC(=O)NS(=O)(=O)N4CC(C)(C)C4)CC[C@@H]23)[C@@]2(C)CC[C@@H](O)C[C@@H]12 [Example 104-g] | < 100 | 289
3 | CC[C@H]1[C@@H](O)[C@@H]2[C@H](CC[C@]3(C)[C@@H]([C@H](C)CCCOC(=O)NS(=O)(=O)C(C)C)CC[C@@H]23)[C@@]2(C)CC[C@@H](O)C[C@@H]12 [Example 114] | 100 to 1000 | 345
4 | CC[C@H]1[C@@H](O)[C@@H]2[C@H](CC[C@]3(C)[C@@H]([C@H](C)CCCOC(=O)N(C)OC)CC[C@@H]23)[C@@]2(C)CC[C@@H](O)C[C@@H]12 [Example 149] | 1000 to 10000 | 232
5 | CC[C@H]1[C@@H](O)[C@@H]2[C@H](CC[C@]3(C)[C@@H]([C@H](C)CCOC(=O)NCCC4CC4)CC[C@@H]23)[C@@]2(C)CC[C@@H](O)C[C@@H]12 [Example 177] | 100 to 1000 | 460
6 | CC[C@H]1[C@@H](O)[C@@H]2[C@H](CC[C@]3(C)[C@@H]([C@H](C)CCOC(=O)NS(=O)(=O)c4ccc(C(C)(C)C)s4)CC[C@@H]23)[C@@]2(C)CC[C@@H](O)C[C@@H]12 [Example 62] | < 100 | 299
7 | CC[C@H]1[C@@H](O)[C@@H]2[C@H](CC[C@]3(C)[C@@H]([C@H](C)CCOC(=O)NC4CCCCC4)CC[C@@H]23)[C@@]2(C)CC[C@@H](O)C[C@@H]12 [Example 127] | 100 to 1000 | 308
8 | CC[C@H]1[C@@H](O)[C@@H]2[C@H](CC[C@]3(C)[C@@H]([C@H](C)CCOC(=O)NS(=O)(=O)CC(C)(C)C)CC[C@@H]23)[C@@]2(C)CC[C@@H](O)C[C@@H]12 [Example 103] | < 100 | 294
9 | CC[C@H]1[C@@H](O)[C@@H]2[C@H](CC[C@]3(C)[C@@H]([C@H](C)COC(=O)NS(=O)(=O)c4ccc5ccccc5c4)CC[C@@H]23)[C@@]2(C)CC[C@@H](O)C[C@@H]12 [Example 12] | < 100 | 217
10 | CC[C@H]1[C@@H](O)[C@@H]2[C@H](CC[C@]3(C)[C@@H]([C@H](C)CCOC(=O)N4CCC(CO)(CO)CC4)CC[C@@H]23)[C@@]2(C)CC[C@@H](O)C[C@@H]12 [Example 218] | < 100 | 356
11 | CC[C@H]1[C@@H](O)[C@@H]2[C@H](CC[C@]3(C)[C@@H]([C@H](C)CCOC(=O)N4CC(=O)NS4(=O)=O)CC[C@@H]23)[C@@]2(C)CC[C@@H](O)C[C@@H]12 [Example 110] | 1000 to 10000 | 28
12 | CC[C@H]1[C@@H](O)[C@@H]2[C@H](CC[C@]3(C)[C@@H]([C@H](C)CCOC(=O)NS(=O)(=O)C(F)(F)F)CC[C@@H]23)[C@@]2(C)CC[C@@H](O)C[C@@H]12 [Example 108] | 1000 to 10000 | 309
13 | CC[C@H]1[C@@H](O)[C@@H]2[C@H](CC[C@]3(C)[C@@H]([C@H](C)CCOC(=O)NCCO)CC[C@@H]23)[C@@]2(C)CC[C@@H](O)C[C@@H]12 [Example 153] | 100 to 1000 | 230
14 | CC[C@H]1[C@@H](O)[C@@H]2[C@H](CC[C@]3(C)[C@@H]([C@H](C)CCCOC(=O)NS(=O)(=O)c4ccc(C)cc4)CC[C@@H]23)[C@@]2(C)CC[C@@H](O)C[C@@H]12 [Example 1] | 100 to 1000 | 422
15 | CC[C@H]1[C@@H](O)[C@@H]2[C@H](CC[C@]3(C)[C@@H]([C@H](C)CCOC(=O)N[C@H]4CCC[C@@H]4O)CC[C@@H]23)[C@@]2(C)CC[C@@H](O)C[C@@H]12 [Example 208] | 100 to 1000 | 205
16 | CC[C@H]1[C@@H](O)[C@@H]2[C@H](CC[C@]3(C)[C@@H]([C@H](C)COC(=O)N4CCCCC4)CC[C@@H]23)[C@@]2(C)CC[C@@H](O)C[C@@H]12 [Example 201] | 100 to 1000 | 1

Row | Compound | EC50 [nM] | Emax [%]
17 | CC[C@H]1[C@@H](O)[C@@H]2[C@H](CC[C@]3(C)[C@@H]([C@H](C)CCOC(=O)Nc4ccc5ccccc5c4)CC[C@@H]23)[C@@]2(C)CC[C@@H](O)C[C@@H]12 [Example 197] | 1000 to 10000 | 101
18 | CC[C@H]1[C@@H](O)[C@@H]2[C@H](CC[C@]3(C)[C@@H]([C@H](C)CCOC(=O)NC4CCC4)CC[C@@H]23)[C@@]2(C)CC[C@@H](O)C[C@@H]12 [Example 133] | < 100 | 283
19 | CC[C@H]1[C@@H](O)[C@@H]2[C@H](CC[C@]3(C)[C@@H]([C@H](C)CCOC(=O)NCCc4ccc(OC)c(OC)c4)CC[C@@H]23)[C@@]2(C)CC[C@@H](O)C[C@@H]12 [Example 144] | 100 to 1000 | 229
20 | CC[C@H]1[C@@H](O)[C@@H]2[C@H](CC[C@]3(C)[C@@H]([C@H](C)COC(=O)NS(=O)(=O)c4ccc(-c5ccc(C(F)(F)F)cc5)s4)CC[C@@H]23)[C@@]2(C)CC[C@@H](O)C[C@@H]12 [Example 27] | 100 to 1000 | 173
21 | CC[C@H]1[C@@H](O)[C@@H]2[C@H](CC[C@]3(C)[C@@H]([C@H](C)CCOC(=O)N[C@@H]4CCC[C@H]4O)CC[C@@H]23)[C@@]2(C)CC[C@@H](O)C[C@@H]12 [Example 207] | 100 to 1000 | 188
22 | CC[C@H]1[C@@H](O)[C@@H]2[C@H](CC[C@]3(C)[C@@H]([C@H](C)CCOC(=O)NS(=O)(=O)c4cccc(Cl)c4)CC[C@@H]23)[C@@]2(C)CC[C@@H](O)C[C@@H]12 [Example 65] | < 100 | 322
23 | CC[C@H]1[C@@H](O)[C@@H]2[C@H](CC[C@]3(C)[C@@H]([C@H](C)CCCOC(=O)N4CCC(N5CCCCC5)CC4)CC[C@@H]23)[C@@]2(C)CC[C@@H](O)C[C@@H]12 [Example 148] | 1000 to 10000 | 37
24 | CC[C@H]1[C@@H](O)[C@@H]2[C@H](CC[C@]3(C)[C@@H]([C@H](C)COC(=O)NS(=O)(=O)c4ccc(-c5ncccn5)cc4)CC[C@@H]23)[C@@]2(C)CC[C@@H](O)C[C@@H]12 [Example 36] | < 100 | 205
25 | CC[C@H]1[C@@H](O)[C@@H]2[C@H](CC[C@]3(C)[C@@H]([C@H](C)CCCOC(=O)N4CCCCC4)CC[C@@H]23)[C@@]2(C)CC[C@@H](O)C[C@@H]12 [Example 165] | 1000 to 10000 | 158
26 | CC[C@H]1[C@@H](O)[C@@H]2[C@H](CC[C@]3(C)[C@@H]([C@H](C)CCOC(=O)NS(=O)(=O)CCOC)CC[C@@H]23)[C@@]2(C)CC[C@@H](O)C[C@@H]12 [Example 83] | 100 to 1000 | 275
27 | CC[C@H]1[C@@H](O)[C@@H]2[C@H](CC[C@]3(C)[C@@H]([C@H](C)CCOC(=O)NS(=O)(=O)c4ccc5ccccc5c4)CC[C@@H]23)[C@@]2(C)CC[C@@H](O)C[C@@H]12 [Example 88] | < 100 | 236
28 | CC[C@H]1[C@@H](O)[C@@H]2[C@H](CC[C@]3(C)[C@@H]([C@H](C)CCOC(=O)NC4CCS(=O)(=O)CC4)CC[C@@H]23)[C@@]2(C)CC[C@@H](O)C[C@@H]12 [Example 167] | 100 to 1000 | 321
29 | CC[C@H]1[C@@H](O)[C@@H]2[C@H](CC[C@]3(C)[C@@H]([C@H](C)CCOC(=O)N4CCC(O)CC4)CC[C@@H]23)[C@@]2(C)CC[C@@H](O)C[C@@H]12 [Example 169] | 100 to 1000 | 257
30 | CCOC(=O)C1CCN(C(=O)OCC[C@@H](C)[C@H]2CC[C@H]3[C@@H]4[C@H](O)[C@H](CC)[C@@H]5C[C@H](O)CC[C@]5(C)[C@H]4CC[C@]23C)CC1 [Example 145] | 1000 to 10000 | 247
31 | CC[C@H]1[C@@H](O)[C@@H]2[C@H](CC[C@]3(C)[C@@H]([C@H](C)CCOC(=O)NS(=O)(=O)C(C)(C)C)CC[C@@H]23)[C@@]2(C)CC[C@@H](O)C[C@@H]12 [Example 48] | < 100 | 282
